Experimental findings from patent publication US11078168B2, “Substituted N-hydroxyamidinoheterocycles as modulators of indoleamine 2,3-dioxygenase” (PHENEX DISCOVERY VERWALTUNGS-GMBH, priority 2016, dated 2021) are described below.

SMILES strings stand for the structures.

T1 sequence (P14902 whole entry): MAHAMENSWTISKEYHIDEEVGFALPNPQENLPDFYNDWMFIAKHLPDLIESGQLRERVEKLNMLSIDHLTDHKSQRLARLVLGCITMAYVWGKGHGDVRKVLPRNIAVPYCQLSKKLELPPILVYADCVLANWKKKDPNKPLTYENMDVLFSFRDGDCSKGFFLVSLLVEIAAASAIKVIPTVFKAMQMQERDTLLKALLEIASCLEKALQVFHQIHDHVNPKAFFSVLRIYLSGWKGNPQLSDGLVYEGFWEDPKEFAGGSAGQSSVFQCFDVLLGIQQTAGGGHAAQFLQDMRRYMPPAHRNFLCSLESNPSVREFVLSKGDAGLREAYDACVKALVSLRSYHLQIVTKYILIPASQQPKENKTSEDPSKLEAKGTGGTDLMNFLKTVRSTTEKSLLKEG

The test has as its target T1, Indoleamine 2,3-dioxygenase (Homo sapiens, UniProt P14902).
T1 construct: endogenous in cells; host or cells: SKOV-3 (ATCC HTB-77), stimulated with interferon gamma
The experiment in a line: SKOV-3 cellular Indoleamine 2,3-dioxygenase assay. The note with it: SKOV-3 cells, 50 ng/ml Interferon gamma, 100 μM L-Tryptophan, 24 hours, N-Formylkynurenin fluorescence detection; read-out: cell based activity. As for the experimental part: SKOV-3 cellular Indoleamine 2,3-dioxygenase assay
SKOV-3 cells were obtained from the American Type Culture Collection (ATCC® HTB-77™) and maintained in McCoy's medium (Pan Biotech) supplemented with 10% fetal bovine serum and 1% Penicilin/Streptomycin. Cells were kept at 37° C. in a humidified incubator with 5% CO2. For assay preparation, cells were seeded at a density of 2*10^5/ml into black clear bottom 96 well plates in 100 μl medium/well supplemented with 50 ng/ml Interferon gamma (eBioscience, Thermo Fisher Scientific). After cells fully adhered to the plate, dilution series of compounds were added in medium containing additional L-Tryptophan to a final L-Tryptophan concentration of 100 μM. The cells were incubated for 24 hours. Detection of produced N-Formylkynurenin was performed by addition of 3-Methylpiperidine to a final concentration of 200 mM. The plates were sealed and heated to 65° C. for 20 minutes in a water bath. After cooling the fluorescence of each well was recorded with a Victor™X4 (PerkinElmer) plate reader at an emission wavelength of 535 nm and excitation at 405 nm (Tomek et al.; Anal Bioanal Chem (2013) 405:2515-2524., Tomek et al.; Biochim Biophys Acta. 2015 September; 1850(9):1772-80).
For the compound `CC(CNS(N)(=O)=O)Oc1nonc1C(=NO)Nc1ccc(F)c(Cl)c1` (single isomer, unassigned) [16/1, N-(3-Chloro-4-fluorophenyl)-N′-hydroxy-4-((1-(sulfamoylamino)propan-2-yl)oxy)-1,2,5-oxadiazole-3-carboximidamide], the IC50 was greater than 1000 nM.
For `C[C@@H](CSc1nonc1C(=NO)Nc1ccc(F)c(C(F)F)c1)NC(=O)CS(N)(=O)=O` (single isomer, unassigned) [114/1], the IC50 is less than 100 nM.
The result for `C[C@H](CSc1nonc1C(=NO)Nc1ccc(F)c(C(F)F)c1)NC(=O)CCS(N)(=O)=O` (single isomer, unassigned) [114/2] reads less than 100 nM; that for `C[C@@H](CSc1nonc1C(=NO)Nc1ccc(F)c(C(F)F)c1)NC(=O)CCS(N)(=O)=O` (single isomer, unassigned) [114/3], less than 100 nM.
The result for `C[C@H](CSc1nonc1/C(=N/O)Nc1ccc(F)c(Br)c1)NC(=O)CS(N)(=O)=O` (single isomer, unassigned) [114/4] reads less than 100 nM; that for `C[C@@H](CSc1nonc1/C(=N/O)Nc1ccc(F)c(Br)c1)NC(=O)CS(N)(=O)=O` (single isomer, unassigned) [114/5], less than 100 nM; that for `CC(CNS(N)(=O)=O)Oc1nonc1C(=NO)Nc1ccc(F)c(Cl)c1` (single isomer, unassigned) [Example 16, N-(3-Chloro-4-fluorophenyl)-N′-hydroxy-4-((1-(sulfamoylamino)propan-2-yl)oxy)-1,2,5-oxadiazole-3-carboximidamide], greater than 1000 nM.
The result for `CC(CSc1nonc1C(=NO)Nc1ccc(F)c(C(F)F)c1)NC(=O)CS(N)(=O)=O` (single isomer, unassigned) [Example 114, N-(1-((4-(N-(3-(difluoromethyl)-4-fluorophenyl)-N′-hydroxycarbamimidoyl)-1,2,5-oxadiazol-3-yl)thio)propan-2-yl)-2-sulfamoylacetamide] reads less than 100 nM; that for `CC(CSc1nonc1C(=NO)Nc1ccc(F)c(C(F)F)c1)NC(=O)CC(N)=O` (single isomer, unassigned) [Example 115, N^1-(1-((4-(N-(3-(Difluoromethyl)-4-fluorophenyl)-N′-hydroxycarbamimidoyl)-1,2,5-oxadiazol-3-yl)thio)propan-2-yl)malonamide], less than 100 nM.
As for `CC(CSc1nonc1C(=NO)Nc1ccc(F)c(C(F)F)c1)NC(=O)CC(N)=O` (single isomer, unassigned) [Example 115/1, N^1-(1-((4-(N-(3-(difluoromethyl)-4-fluorophenyl)-N′-hydroxycarbamimidoyl)-1,2,5-oxadiazol-3-yl)thio)propan-2-yl)malonamide], the IC50 was less than 100 nM.
In the case of `CS(=O)(=O)NCCOc1nonc1C(=NO)Nc1ccc(F)c(Cl)c1` [1/1], the IC50 was less than 100 nM.
The result for `O=S(=O)(NCCOc1nonc1C(=NO)Nc1ccc(F)c(Cl)c1)C(F)(F)F` [1/2] reads greater than 1000 nM.
The result for `O=S(=O)(NCCOc1nonc1C(=NO)Nc1ccc(F)c(Cl)c1)C(F)F` [1/3] reads less than 100 nM; that for `C[S+]([O-])NCCOc1nonc1C(=NO)Nc1ccc(F)c(Cl)c1` (centres unmarked) [1/4], 100 to 1000 nM; that for `Nc1c(NCCOc2nonc2C(=NO)Nc2ccc(F)c(Br)c2)c(=O)c1=O` [2/1], less than 100 nM.
On to `Nc1c(NCCOc2nonc2C(=NO)Nc2ccc(F)c(C(F)F)c2)c(=O)c1=O` [2/3], for which the IC50 is less than 100 nM.
The result for `Nc1c(NCCCOc2nonc2C(=NO)Nc2ccc(F)c(Cl)c2)c(=O)c1=O` [2/4] reads less than 100 nM.
The result for `Nc1c(NCCOc2nonc2C(=NO)Nc2ccc(F)c(C(F)(F)F)c2)c(=O)c1=O` [2/5] reads less than 100 nM; that for `Nc1c(NCCOc2nonc2C(=NO)Nc2cccc(C(F)(F)F)c2)c(=O)c1=O` [2/6], less than 100 nM.
As to `Nc1c(NCCOc2nonc2C(=NO)Nc2cccc(C(F)F)c2)c(=O)c1=O` [2/7], the IC50 lay in the range of 100 to 1000 nM.
As to `N[C@@H](CC(=O)NCCOc1nonc1C(=NO)Nc1ccc(F)c(Cl)c1)C(=O)O` [3/1], the IC50 lay in the range of 100 to 1000 nM.
Regarding `O=C(NCCOc1nonc1C(=NO)Nc1ccc(F)c(Cl)c1)C1(O)CNC1` [3/2], the IC50 is 100 to 1000 nM.
With `O=C(NCCOc1nonc1C(=NO)Nc1ccc(F)c(Cl)c1)C1(F)CNC1` [3/3], the IC50 fell in the range of 100 to 1000 nM.
Consider `NC(C(=O)NCCOc1nonc1C(=NO)Nc1ccc(F)c(Cl)c1)C(F)(F)F` (centres unmarked) [3/4], for which the IC50 is less than 100 nM.
With `NC(=O)CS(=O)(=O)NCCOc1nonc1C(=NO)Nc1ccc(F)c(C(F)(F)F)c1` [4/1], the IC50 is less than 100 nM.
The result for `NC(=O)CS(=O)(=O)NCCOc1nonc1C(=NO)Nc1ccc(F)c(C(F)F)c1` [4/2] reads less than 100 nM.
The result for `NS(=O)(=O)NCCOc1nonc1/C(=N/O)Nc1ccc(F)c(Cl)c1` [6/1] reads less than 100 nM; that for `NS(=O)(=O)NCCOc1nonc1C(=NO)Nc1ccc(F)c(C(F)F)c1` [6/2], less than 100 nM.
The result for `NS(=O)(=O)NCCOc1nonc1C(=NO)Nc1cccc(C(F)F)c1` [6/3] reads 100 to 1000 nM.
As to `CN(CCOc1nonc1C(=NO)Nc1ccc(F)c(Cl)c1)S(N)(=O)=O` [6/4], the IC50 lay within 100 to 1000 nM.
The result for `CNS(=O)(=O)N(C)CCOc1nonc1C(=NO)Nc1ccc(F)c(Cl)c1` [6/5] reads 100 to 1000 nM.
Take `CN(C)S(=O)(=O)NCCOc1nonc1C(=NO)Nc1ccc(F)c(Cl)c1` [6/6]: the IC50 is less than 100 nM.
The result for `NC(=O)CC(=O)NCCOc1nonc1C(=NO)Nc1ccc(F)c(Cl)c1` [7/1, N^1-(2-((4-(N-(3-chloro-4-fluorophenyl)-N′-hydroxycarbamimidoyl)-1,2,5-oxadiazol-3-yl)oxy)ethyl)malonamide] reads less than 100 nM; that for `COc1nonc1/C(=N/O)Nc1ccc(F)c(Br)c1` [8/1, N-(3-Bromo-4-fluorophenyl)-N-hydroxy-4-methoxy-1,2,5-oxadiazole-3-carboximidamide], less than 100 nM; that for `COc1nonc1C(=NO)Nc1ccc(F)c(Cl)c1` [8/2], 100 to 1000 nM.
On to `O/N=C(\Nc1ccc(F)c(Br)c1)c1nonc1OCC(F)(F)F` [8/3, N-(3-Bromo-4-fluorophenyl)-N′-hydroxy-4-(2,2,2-trifluoroethoxy)-1,2,5-oxadiazole-3-carboximidamide], for which the IC50 lay in the range of 100 to 1000 nM.
Consider `O=C(NCCOc1nonc1C(=NO)Nc1ccc(F)c(Cl)c1)c1ccc(F)cc1` [9/1], for which the IC50 was in the range of 100 to 1000 nM.
The result for `O=C(NCCOc1nonc1C(=NO)Nc1ccc(F)c(Cl)c1)c1ccc2[nH]ccc2c1` [9/2] reads 100 to 1000 nM; that for `O=C(NCCOc1nonc1C(=NO)Nc1ccc(F)c(Cl)c1)C1CC1` [9/3], less than 100 nM; that for `O=C(NCCOc1nonc1C(=NO)Nc1ccc(F)c(Cl)c1)c1cnccn1` [9/4], 100 to 1000 nM.
The result for `O=C(NCCOc1nonc1C(=NO)Nc1ccc(F)c(Cl)c1)c1nnc[nH]1` [9/5] reads 100 to 1000 nM; that for `O=C(CC1SC(=O)NC1=O)NCCOc1nonc1C(=NO)Nc1ccc(F)c(Cl)c1` (centres unmarked) [9/6], greater than 1000 nM.
The result for `O=C(NCCCOc1nonc1C(=NO)Nc1ccc(F)c(Cl)c1)C(O)CO` (centres unmarked) [9/7] reads 100 to 1000 nM; that for `O=C(NCCCOc1nonc1C(=NO)Nc1ccc(F)c(Cl)c1)c1nn[nH]n1` [9/8], greater than 1000 nM.
Consider `O=C(O)c1ccc(C(=O)NCCOc2nonc2C(=NO)Nc2ccc(F)c(Cl)c2)cc1` [9/9], for which the IC50 was greater than 1000 nM.
For `O=C(NCCOc1nonc1C(=NO)Nc1ccc(F)c(Cl)c1)c1n[nH]c(=O)[nH]1` [9/10], the IC50 is greater than 1000 nM.
The result for `CC(C)(C(=O)O)C(=O)NCCOc1nonc1C(=NO)Nc1ccc(F)c(Cl)c1` [9/11] reads greater than 1000 nM.
Turning to `O=C(NCCOc1nonc1C(=NO)Nc1ccc(F)c(Cl)c1)C1(O)CC1` [9/12], the IC50 is 100 to 1000 nM.
The result for `O=C(O)c1cccc(C(=O)NCCOc2nonc2C(=NO)Nc2ccc(F)c(Cl)c2)c1` [9/13] reads greater than 1000 nM; that for `NS(=O)(=O)CC(=O)NCCOc1nonc1C(=NO)Nc1ccc(F)c(Cl)c1` [9/14], 100 to 1000 nM.
As to `CS(=O)(=O)CC(=O)NCCOc1nonc1C(=NO)Nc1ccc(F)c(Cl)c1` [9/15], the IC50 is less than 100 nM.
The result for `CC(C)(C)OC(=O)NC1(C(=O)NCCOc2nonc2C(=NO)Nc2ccc(F)c(Cl)c2)COC1` [9/16] reads 100 to 1000 nM; that for `CNC(=O)C(=O)NCCOc1nonc1C(=NO)Nc1ccc(F)c(Cl)c1` [9/17], 100 to 1000 nM.
The result for `CC(C)(C)OC(=O)NC1(C(=O)NCCOc2nonc2C(=NO)Nc2ccc(F)c(Cl)c2)CC1(F)F` (centres unmarked) [9/18] reads greater than 1000 nM; that for `CN(C)C(=O)C(=O)NCCOc1nonc1C(=NO)Nc1ccc(F)c(Cl)c1` [9/19], 100 to 1000 nM.
The result for `NS(=O)(=O)CC(=O)NCCOc1nonc1C(=NO)Nc1cccc(C(F)(F)F)c1` [9/20] reads 100 to 1000 nM.
Regarding `NS(=O)(=O)CC(=O)NCCOc1nonc1C(=NO)Nc1ccc(F)c(C(F)(F)F)c1` [9/21], the IC50 is less than 100 nM.
The result for `CN(CCOc1nonc1C(=NO)Nc1ccc(F)c(Cl)c1)C(=O)CS(N)(=O)=O` [9/22] reads 100 to 1000 nM; that for `CN1CCN(CCOc2nonc2C(=NO)Nc2ccc(F)c(Cl)c2)CC1` [10/1, N-(3-Chloro-4-fluorophenyl)-N′-hydroxy-4-(2-(4-methylpiperazin-1-yl)ethoxy)-1,2,5-oxadiazole-3-carboximidamide], 100 to 1000 nM.
